In US10800791B2, “Triazole ACC inhibitors and uses thereof” (Gilead Apollo, LLC, priority 2015, dated 2020):
Values after ≈ are worked out from the molar mass of the structure shown. Read-outs that look alike come from different tables or passages of the source.

Columns and labels:
[1] = molecular target: human (hACC2) (Homo sapiens, UniProt O00763); experiment: In vitro ACC inhibition assay (ADP-Glo), hACC2; type: biochemical; details: Table 2b, additional results, 5 nM ACC2, 20 μM ATP, 20 μM acetyl-CoA
Sequence of human (hACC2) (O00763 whole entry): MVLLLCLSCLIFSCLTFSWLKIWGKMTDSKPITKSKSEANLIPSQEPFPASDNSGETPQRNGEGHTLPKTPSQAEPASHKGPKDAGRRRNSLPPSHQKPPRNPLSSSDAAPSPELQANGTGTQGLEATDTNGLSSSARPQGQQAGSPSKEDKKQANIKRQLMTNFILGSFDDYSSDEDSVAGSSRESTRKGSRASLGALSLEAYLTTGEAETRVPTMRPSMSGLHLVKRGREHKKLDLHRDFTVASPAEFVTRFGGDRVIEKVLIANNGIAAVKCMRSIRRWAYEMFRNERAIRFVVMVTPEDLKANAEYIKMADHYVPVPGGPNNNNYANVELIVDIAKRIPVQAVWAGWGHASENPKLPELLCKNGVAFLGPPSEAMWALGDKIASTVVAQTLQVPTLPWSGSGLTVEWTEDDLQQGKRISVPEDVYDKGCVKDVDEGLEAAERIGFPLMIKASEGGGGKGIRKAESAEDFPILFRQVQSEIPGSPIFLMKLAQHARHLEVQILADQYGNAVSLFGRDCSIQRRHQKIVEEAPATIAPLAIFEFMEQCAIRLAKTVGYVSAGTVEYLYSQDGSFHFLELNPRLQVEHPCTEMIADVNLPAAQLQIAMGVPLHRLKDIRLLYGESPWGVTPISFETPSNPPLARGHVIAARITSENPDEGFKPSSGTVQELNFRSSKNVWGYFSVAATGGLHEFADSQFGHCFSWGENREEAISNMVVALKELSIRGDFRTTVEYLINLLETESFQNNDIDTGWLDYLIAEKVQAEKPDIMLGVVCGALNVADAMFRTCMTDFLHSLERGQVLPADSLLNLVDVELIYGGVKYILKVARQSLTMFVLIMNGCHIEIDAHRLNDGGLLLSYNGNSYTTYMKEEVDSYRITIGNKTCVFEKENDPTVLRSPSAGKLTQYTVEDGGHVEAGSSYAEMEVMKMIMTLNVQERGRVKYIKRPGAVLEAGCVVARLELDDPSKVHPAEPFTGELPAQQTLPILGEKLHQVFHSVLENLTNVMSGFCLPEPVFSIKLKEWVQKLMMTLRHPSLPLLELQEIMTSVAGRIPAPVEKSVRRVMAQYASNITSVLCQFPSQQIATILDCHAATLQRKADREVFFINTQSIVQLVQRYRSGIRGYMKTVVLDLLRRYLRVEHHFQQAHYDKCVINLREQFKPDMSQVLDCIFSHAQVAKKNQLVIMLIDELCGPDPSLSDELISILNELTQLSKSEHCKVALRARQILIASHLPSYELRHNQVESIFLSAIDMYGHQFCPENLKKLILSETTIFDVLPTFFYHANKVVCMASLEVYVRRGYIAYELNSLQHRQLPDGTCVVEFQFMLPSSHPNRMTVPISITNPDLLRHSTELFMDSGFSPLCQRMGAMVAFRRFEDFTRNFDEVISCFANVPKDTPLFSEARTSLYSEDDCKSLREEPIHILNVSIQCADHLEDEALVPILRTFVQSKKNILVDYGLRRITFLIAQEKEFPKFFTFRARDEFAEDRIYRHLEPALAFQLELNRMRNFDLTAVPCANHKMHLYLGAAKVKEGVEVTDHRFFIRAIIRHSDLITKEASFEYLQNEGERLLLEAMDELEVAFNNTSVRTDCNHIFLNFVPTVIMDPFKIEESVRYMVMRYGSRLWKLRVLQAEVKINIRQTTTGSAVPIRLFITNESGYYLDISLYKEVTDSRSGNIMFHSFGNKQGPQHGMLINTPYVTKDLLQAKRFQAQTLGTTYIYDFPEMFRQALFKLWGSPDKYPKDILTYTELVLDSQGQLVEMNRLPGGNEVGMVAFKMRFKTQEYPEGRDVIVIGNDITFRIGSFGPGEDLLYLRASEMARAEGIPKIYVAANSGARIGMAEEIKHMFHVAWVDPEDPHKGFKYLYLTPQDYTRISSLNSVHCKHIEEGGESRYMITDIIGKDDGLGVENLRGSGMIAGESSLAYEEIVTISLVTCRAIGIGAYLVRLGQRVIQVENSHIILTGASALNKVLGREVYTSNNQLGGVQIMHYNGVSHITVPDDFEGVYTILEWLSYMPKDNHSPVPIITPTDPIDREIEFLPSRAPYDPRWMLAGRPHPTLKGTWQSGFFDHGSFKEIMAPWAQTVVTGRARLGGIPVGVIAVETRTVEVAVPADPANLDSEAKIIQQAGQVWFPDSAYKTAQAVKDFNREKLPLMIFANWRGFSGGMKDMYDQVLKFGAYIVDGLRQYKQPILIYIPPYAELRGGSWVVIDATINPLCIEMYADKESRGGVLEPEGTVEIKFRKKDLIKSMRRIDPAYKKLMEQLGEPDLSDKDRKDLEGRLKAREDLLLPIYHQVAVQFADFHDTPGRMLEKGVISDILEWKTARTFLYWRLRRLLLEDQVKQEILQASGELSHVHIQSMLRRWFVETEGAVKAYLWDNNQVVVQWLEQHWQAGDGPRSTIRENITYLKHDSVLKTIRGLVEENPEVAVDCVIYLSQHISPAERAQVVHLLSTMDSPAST
Experimental: The detailed procedure is as follows. […] 10 μL ADP glo reagent was added. […] 20 μL kinase detection reagent was added.

[2] = system: C. albicans; experiment: Antifungal Activity Assay (broth microtiter MIC), C. albicans; type: cell-based, Candida albicans; details: Candida albicans, ATCC90028, 48 h
Summary of the method: (§1)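 Colonies from 24 h Sabouraud dextrose agar plates (35° C) are suspended in RPMI 1640+MOPS and diluted to give 2.5×10^3 CFU/mL in the wells. Plates are set up per CLSI M27-A3. Visual MIC is recorded at 48 h.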

[3] = system: C. krusei; experiment: Antifungal Activity Assay (broth microtiter MIC), C. krusei; type: cell-based, Candida krusei; details: Pichia kudriavzevii, ATCC6258, 48 h
Summary of the method: as §1

[4] = system: C. parapsilosis; experiment: Antifungal Activity Assay (broth microtiter MIC), C. parapsilosis; type: cell-based, Candida parapsilosis; details: Lodderomyces parapsilosis, ATCC22019, 48 h
Summary of the method: as §1

[5] = system: Botrtyis cinerea (Bc); experiment: Growth inhibition assay of fungal pathogens, Bc; type: cell-based; details: 48 h, growth inhibition at 48 hours vs 2% DMSO control
Summary of the method: (§2)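 Spores from sub-cultured plates were diluted in 17% V8 liquid medium and exposed to compound from DMSO stocks at final concentrations of 50, 10 and 2 ppm or 2, 0.4 and 0.08 ppm. OD600 and visual ratings at 48 h were compared with the 2% DMSO control to give percent growth inhibition.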

[6] = system: Collectotrichum graminicola (Cg); experiment: Growth inhibition assay of fungal pathogens, Cg; type: cell-based; details: 48 h, growth inhibition at 48 hours vs 2% DMSO control
Summary of the method: as §2

[7] = system: Diplodia maydis (Dm); experiment: Growth inhibition assay of fungal pathogens, Dm; type: cell-based; details: Stenocarpella maydis, 48 h, growth inhibition at 48 hours vs 2% DMSO control
Summary of the method: as §2

[8] = system: Fusarium moniliforme (Fm); experiment: Growth inhibition assay of fungal pathogens, Fm; type: cell-based; details: Fusarium verticillioides, 48 h, read-out: Concentration at 90% Inhibition Fm
Summary of the method: as §2

[9] = system: Fusarium virguliforme (Fv); experiment: Growth inhibition assay of fungal pathogens, Fv; type: cell-based; details: 48 h
Summary of the method: as §2

[10] = system: Phytophthora capsici (Pc); experiment: Growth inhibition assay of fungal pathogens, Pc; type: cell-based; details: 48 h
Summary of the method: as §2

[11] = system: Rhizoctonia solani (Rs); experiment: Growth inhibition assay of fungal pathogens, Rs; type: cell-based; details: 48 h
[12] = system: Septoria tritici (St); experiment: Growth inhibition assay of fungal pathogens, St; type: cell-based; details: Zymoseptoria tritici, 48 h, growth inhibition at 48 hours vs 2% DMSO control
Summary of the method: as §2

[13] = molecular target: fungal (fACC2) (UniProt Q00955); details: read-out: fACC2 (in vitro ACC2 Inhibition Assay, IC50); Table 2b, additional results; ADP-Glo, 5 nM ACC2, 20 μM ATP, 20 μM acetyl-CoA
Sequence of fungal (fACC2) (Q00955 whole entry): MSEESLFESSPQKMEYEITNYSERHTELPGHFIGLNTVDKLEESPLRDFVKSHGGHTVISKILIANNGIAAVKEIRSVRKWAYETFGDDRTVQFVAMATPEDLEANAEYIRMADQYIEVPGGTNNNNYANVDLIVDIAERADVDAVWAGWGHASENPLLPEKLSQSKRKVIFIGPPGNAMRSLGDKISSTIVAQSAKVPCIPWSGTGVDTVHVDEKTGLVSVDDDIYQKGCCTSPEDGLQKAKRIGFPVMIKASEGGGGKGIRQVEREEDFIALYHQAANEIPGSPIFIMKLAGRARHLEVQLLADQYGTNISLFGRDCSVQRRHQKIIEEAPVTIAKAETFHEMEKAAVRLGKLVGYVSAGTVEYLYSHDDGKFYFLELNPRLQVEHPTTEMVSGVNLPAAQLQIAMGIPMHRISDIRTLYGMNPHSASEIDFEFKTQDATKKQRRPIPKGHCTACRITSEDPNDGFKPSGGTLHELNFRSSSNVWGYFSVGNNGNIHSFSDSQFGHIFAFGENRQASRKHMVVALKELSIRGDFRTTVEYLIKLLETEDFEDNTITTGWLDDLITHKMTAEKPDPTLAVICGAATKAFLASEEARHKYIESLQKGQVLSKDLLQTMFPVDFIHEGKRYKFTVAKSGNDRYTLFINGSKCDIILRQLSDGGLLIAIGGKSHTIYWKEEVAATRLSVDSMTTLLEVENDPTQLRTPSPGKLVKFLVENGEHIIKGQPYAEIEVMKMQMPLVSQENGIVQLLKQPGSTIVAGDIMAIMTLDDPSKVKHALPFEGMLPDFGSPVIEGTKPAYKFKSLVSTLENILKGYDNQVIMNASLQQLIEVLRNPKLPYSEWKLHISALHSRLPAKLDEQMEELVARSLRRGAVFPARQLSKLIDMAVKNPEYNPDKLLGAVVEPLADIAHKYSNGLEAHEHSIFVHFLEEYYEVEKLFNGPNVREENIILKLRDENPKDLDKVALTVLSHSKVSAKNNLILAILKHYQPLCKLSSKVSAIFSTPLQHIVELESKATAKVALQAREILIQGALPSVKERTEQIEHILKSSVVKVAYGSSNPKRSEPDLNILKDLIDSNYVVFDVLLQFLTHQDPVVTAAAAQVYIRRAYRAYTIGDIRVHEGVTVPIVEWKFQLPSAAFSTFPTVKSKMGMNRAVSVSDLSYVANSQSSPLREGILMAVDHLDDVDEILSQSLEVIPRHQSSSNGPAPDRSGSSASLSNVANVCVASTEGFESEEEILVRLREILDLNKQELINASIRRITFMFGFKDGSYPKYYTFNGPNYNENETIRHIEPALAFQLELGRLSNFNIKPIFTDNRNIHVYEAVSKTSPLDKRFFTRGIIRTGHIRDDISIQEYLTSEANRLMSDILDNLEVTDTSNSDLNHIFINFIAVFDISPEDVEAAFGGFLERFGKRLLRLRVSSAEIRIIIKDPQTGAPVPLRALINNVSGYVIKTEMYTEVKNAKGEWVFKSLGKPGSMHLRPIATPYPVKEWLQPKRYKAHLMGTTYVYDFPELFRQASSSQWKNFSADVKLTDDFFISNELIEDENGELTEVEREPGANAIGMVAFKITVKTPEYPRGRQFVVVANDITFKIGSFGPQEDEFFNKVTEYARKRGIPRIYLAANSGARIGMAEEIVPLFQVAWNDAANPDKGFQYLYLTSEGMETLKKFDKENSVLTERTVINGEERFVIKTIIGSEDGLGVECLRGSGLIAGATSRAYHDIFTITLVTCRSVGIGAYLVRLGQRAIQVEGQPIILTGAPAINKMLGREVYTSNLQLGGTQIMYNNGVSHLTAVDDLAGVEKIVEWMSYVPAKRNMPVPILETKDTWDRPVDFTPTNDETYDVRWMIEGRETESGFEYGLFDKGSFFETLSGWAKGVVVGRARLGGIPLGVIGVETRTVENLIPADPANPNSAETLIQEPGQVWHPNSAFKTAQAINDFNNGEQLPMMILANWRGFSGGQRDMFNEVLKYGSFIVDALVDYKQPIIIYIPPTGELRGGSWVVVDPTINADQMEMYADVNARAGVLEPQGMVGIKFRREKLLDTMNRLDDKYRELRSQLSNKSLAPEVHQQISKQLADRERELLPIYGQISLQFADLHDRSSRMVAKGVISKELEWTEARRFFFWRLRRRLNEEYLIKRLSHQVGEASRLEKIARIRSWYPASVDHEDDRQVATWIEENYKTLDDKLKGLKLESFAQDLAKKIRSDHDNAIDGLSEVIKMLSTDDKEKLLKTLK

[14] = read-out: MIC, C. albicans ATCC 90028, Table 3b (additional results), 3 replicates, MIC recorded at 48 h
[15] = read-out: MIC, C. krusei ATCC 6258, Table 3b (additional results), 3 replicates, MIC recorded at 48 h
[16] = read-out: MIC, C. parapsilosis ATCC 22019, Table 3b (additional results), 3 replicates, MIC recorded at 48 h
[17] = read-out: Concentration at 90% Inhibition Bc, Botrtyis cinerea
[18] = read-out: Concentration at 90% Inhibition Cg, Collectotrichum graminicola
[19] = read-out: Concentration at 90% Inhibition Dm, Diplodia maydis
[20] = read-out: Concentration at 90% Inhibition Fv, Fusarium virguliforme, growth inhibition at 48 hours vs 2% DMSO control
[21] = read-out: Concentration at 90% Inhibition Pc, Phytophthora capsici, growth inhibition at 48 hours vs 2% DMSO control
[22] = read-out: Concentration at 90% Inhibition Rs, Rhizoctonia solani, mycelial plugs, growth inhibition at 48 hours vs 2% DMSO control
[23] = read-out: Concentration at 90% Inhibition St, Septoria tritici

COc1ccc(F)cc1[C@H](Cn1c(=O)n(C(C)(C)C(=O)NC(C)C)c(=O)c2c(C)c(-n3nccn3)sc21)O[C@H]1CC[C@@H](O)CC1 [Compound I-216]
IC50 [1]: 5 to 10 nM | MIC [2, 14]: 0.25 to 1 µg/mL (≈ 0.389 to 1.56 µM) | MIC [3, 15]: 0.06 to 0.249 µg/mL (≈ 0.0933 to 0.387 µM) | MIC [4, 16]: 0.25 to 1 µg/mL (≈ 0.389 to 1.56 µM) | IC90 [5, 17]: 0.4 µg/mL (≈ 0.622 µM) | IC90 [6, 18]: 2 µg/mL (≈ 3.11 µM) | IC90 [7, 19]: 2 µg/mL (≈ 3.11 µM) | IC90 [8]: 0.08 µg/mL (≈ 0.124 µM) | IC90 [9, 20]: 0.4 µg/mL (≈ 0.622 µM) | IC90 [10, 21]: > 50 µg/mL | IC90 [11, 22]: 0.08 µg/mL (≈ 0.124 µM) | IC90 [12, 23]: > 50 µg/mL | IC50 [13]: 0.3 to 1 nM

COc1ccccc1[C@H](Cn1c(=O)n(C(C)(C)C(=O)NC(C)C)c(=O)c2c(C)c(-n3nccn3)sc21)O[C@H]1CC[C@@H](O)CC1 [Compound I-217]
IC50 [1]: 5 to 10 nM | MIC [2, 14]: 0.25 to 1 µg/mL (≈ 0.4 to 1.6 µM) | MIC [3, 15]: 0.06 to 0.249 µg/mL (≈ 0.096 to 0.399 µM) | MIC [4, 16]: 0.25 to 1 µg/mL (≈ 0.4 to 1.6 µM) | IC90 [5, 17]: 0.4 µg/mL (≈ 0.64 µM) | IC90 [6, 18]: 2 µg/mL (≈ 3.2 µM) | IC90 [7, 19]: 2 µg/mL (≈ 3.2 µM) | IC90 [8]: 0.08 µg/mL (≈ 0.128 µM) | IC90 [9, 20]: 0.4 µg/mL (≈ 0.64 µM) | IC90 [10, 21]: > 50 µg/mL | IC90 [11, 22]: 0.08 µg/mL (≈ 0.128 µM) | IC90 [12, 23]: > 50 µg/mL | IC50 [13]: 0.3 to 1 nM

COc1ccc(F)cc1[C@H](Cn1c(=O)n(C(C)(C)C(=O)NC(C)C)c(=O)c2c(C)c(-n3nccn3)sc21)OCCC(=O)NO [Compound I-218]
IC50 [1]: 10 to 40 nM | MIC [2, 14]: 0.25 to 1 µg/mL (≈ 0.396 to 1.58 µM) | MIC [3, 15]: 0.25 to 1 µg/mL (≈ 0.396 to 1.58 µM) | MIC [4, 16]: 0.25 to 1 µg/mL (≈ 0.396 to 1.58 µM) | IC90 [5, 17]: 2 µg/mL (≈ 3.17 µM) | IC90 [6, 18]: 10 µg/mL (≈ 15.8 µM) | IC90 [7, 19]: 10 µg/mL (≈ 15.8 µM) | IC90 [8]: 2 µg/mL (≈ 3.17 µM) | IC90 [9, 20]: 2 µg/mL (≈ 3.17 µM) | IC90 [10, 21]: > 50 µg/mL | IC90 [11, 22]: 2 µg/mL (≈ 3.17 µM) | IC90 [12, 23]: > 50 µg/mL | IC50 [13]: 1 to 5 nM

Cc1c(-n2nccn2)sc2c1c(=O)n(C(C)(C)C(=O)NC1CCC1)c(=O)n2C[C@H](OC(C)C)c1cc(F)ccc1OCC#N [Compound I-221]
IC50 [1]: 5 to 10 nM | MIC [2, 14]: 1.01 to 2 µg/mL (≈ 1.62 to 3.21 µM) | MIC [3, 15]: 0.25 to 1 µg/mL (≈ 0.401 to 1.6 µM) | MIC [4, 16]: 0.25 to 1 µg/mL (≈ 0.401 to 1.6 µM) | IC90 [5, 17]: 0.4 µg/mL (≈ 0.641 µM) | IC90 [6, 18]: 2 µg/mL (≈ 3.21 µM) | IC90 [7, 19]: 2 µg/mL (≈ 3.21 µM) | IC90 [8]: 0.08 µg/mL (≈ 0.128 µM) | IC90 [9, 20]: 0.4 µg/mL (≈ 0.641 µM) | IC90 [10, 21]: > 50 µg/mL | IC90 [11, 22]: 0.4 µg/mL (≈ 0.641 µM) | IC90 [12, 23]: > 50 µg/mL | IC50 [13]: 0.3 to 1 nM

Cc1c(-n2nccn2)sc2c1c(=O)n(C(C)(C)C(=O)NC(C)C)c(=O)n2C[C@H](O[C@H]1CC[C@@H](O)CC1)c1cc(F)ccc1OCC#N [Compound I-222]
IC50 [1]: 5 to 10 nM | MIC [2, 14]: 0.25 to 1 µg/mL (≈ 0.374 to 1.5 µM) | MIC [3, 15]: 0.25 to 1 µg/mL (≈ 0.374 to 1.5 µM) | MIC [4, 16]: 0.25 to 1 µg/mL (≈ 0.374 to 1.5 µM) | IC90 [5, 17]: 2 µg/mL (≈ 3 µM) | IC90 [6, 18]: 2 µg/mL (≈ 3 µM) | IC90 [7, 19]: 0.4 µg/mL (≈ 0.599 µM) | IC90 [8]: 0.08 µg/mL (≈ 0.12 µM) | IC90 [9, 20]: 2 µg/mL (≈ 3 µM) | IC90 [10, 21]: > 50 µg/mL | IC90 [11, 22]: 0.4 µg/mL (≈ 0.599 µM) | IC90 [12, 23]: > 50 µg/mL | IC50 [13]: 0.3 to 1 nM

COc1ccc(C#N)cc1[C@H](Cn1c(=O)n(C(C)(C)C(=O)NC(C)C)c(=O)c2c(C)c(-n3nccn3)sc21)OCC(C)(C)C#N [Compound I-223]
IC50 [1]: 10 to 40 nM | MIC ([2]; Table 3b (additional results), ATCC 90028, 3 replicates, MIC recorded at 48 h, read-out: MIC, C. albicans ATCC 90028): 0.25 to 1 µg/mL (≈ 0.395 to 1.58 µM) | MIC ([3]; Table 3b (additional results), ATCC 6258, 3 replicates, MIC recorded at 48 h, read-out: MIC, C. krusei ATCC 6258): 0.25 to 1 µg/mL (≈ 0.395 to 1.58 µM) | MIC ([4]; Table 3b (additional results), ATCC 22019, 3 replicates, MIC recorded at 48 h, read-out: MIC, C. parapsilosis ATCC 22019): 1.01 to 2 µg/mL (≈ 1.6 to 3.16 µM) | IC90 ([5]; Botrtyis cinerea, read-out: Concentration at 90% Inhibition Bc): 10 µg/mL (≈ 15.8 µM) | IC90 ([6]; Collectotrichum graminicola, read-out: Concentration at 90% Inhibition Cg): > 50 µg/mL | IC90 ([7]; Diplodia maydis, read-out: Concentration at 90% Inhibition Dm): > 50 µg/mL | IC90 ([8]; Fusarium moniliforme, growth inhibition at 48 hours vs 2% DMSO control): 0.4 µg/mL (≈ 0.632 µM) | IC90 ([9]; growth inhibition at 48 hours vs 2% DMSO control, read-out: Concentration at 90% Inhibition Fv): 10 µg/mL (≈ 15.8 µM) | IC90 ([10]; growth inhibition at 48 hours vs 2% DMSO control, read-out: Concentration at 90% Inhibition Pc): > 50 µg/mL | IC90 ([11]; mycelial plugs, growth inhibition at 48 hours vs 2% DMSO control, read-out: Concentration at 90% Inhibition Rs): 2 µg/mL (≈ 3.16 µM) | IC90 ([12]; Septoria tritici, read-out: Concentration at 90% Inhibition St): > 50 µg/mL | IC50 [13]: 1 to 5 nM
